Assay results from publication PMC8430952 (International Journal of Molecular Sciences, 2021).
Changes are numbered by the printed parent chain. No end group written: not given here.

T1: ATAD2 bromodomain (BRD), residues 981–1108 (Homo sapiens, UniProt Q6PL18)
T1 construct: Residues 981–1108 encoding the 128 amino acid ATAD2 BRD were PCR amplified; GST (with PreScission Protease site) (N, cleaved yes); made in house; host or cells: E. coli Rosetta 2(DE3) pLysS (non-codon-optimized) or BL21(DE3) pLysS (codon-optimized)
T1 sequence (Q6PL18 981-1108): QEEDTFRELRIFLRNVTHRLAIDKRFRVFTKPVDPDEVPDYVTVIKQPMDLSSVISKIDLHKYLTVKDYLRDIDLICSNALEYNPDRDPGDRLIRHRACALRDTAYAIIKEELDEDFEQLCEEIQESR

T2: ATAD2 BRD mutant N1064A (Homo sapiens, UniProt Q6PL18, N1064A)
T2 construct: ATAD2 (residues 981–1108) with a N1064A/I1074A/I1074Y mutation; GST (with PreScission Protease site) (N, cleaved yes); made in house; host or cells: E. coli
T2 sequence (Q6PL18 981-1108 N1064A): T1 sequence (Q6PL18 981-1108) with N84A

T3: ATAD2 BRD mutant I1074Y (Homo sapiens, UniProt Q6PL18, I1074Y)
T3 construct: ATAD2 (residues 981–1108) with a N1064A/I1074A/I1074Y mutation; GST (with PreScission Protease site) (N, cleaved yes); made in house; host or cells: E. coli
T3 sequence (Q6PL18 981-1108 I1074Y): T1 sequence (Q6PL18 981-1108) with I94Y

T4: ATAD2 BRD mutant I1074A (Homo sapiens, UniProt Q6PL18, I1074A)
T4 construct: ATAD2 (residues 981–1108) with a N1064A/I1074A/I1074Y mutation; GST (with PreScission Protease site) (N, cleaved yes); made in house; host or cells: E. coli
T4 sequence (Q6PL18 981-1108 I1074A): T1 sequence (Q6PL18 981-1108) with I94A

T5: ATAD2 bromodomain (residues 966–1112, C1101A) (Homo sapiens, UniProt Q6PL18, C1101A)
T5 construct: GST (with PreScission protease cleavage site) (N, cleaved yes); made in house; host or cells: E. coli BL21(DE3) pLysS
T5 sequence (Q6PL18 966-1112 C1101A): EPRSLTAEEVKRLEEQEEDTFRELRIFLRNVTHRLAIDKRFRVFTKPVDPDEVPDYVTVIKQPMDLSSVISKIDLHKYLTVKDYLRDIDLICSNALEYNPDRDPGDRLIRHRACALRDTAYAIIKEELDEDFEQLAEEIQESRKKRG

T6: histone H4K5acK8ac 1-10 (Homo sapiens, UniProt P62805)
T6 chain: MSGRGK(Ac)GGK(Ac)G

T7: histone H4K12ac 4-17 (Homo sapiens, UniProt P62805)
T7 chain: RGKGGKGLGK(Ac)GGAK

B1: ATAD2 bromodomain (protein)
chain: RLEEQEEDTFRELRIFLRNVTHRLAIDKRFRVFTKPVDPDEVPDYVTVIKQPMDLSSVISKIDLHKYLTVKDYLRDIDLICSNALEYNPDRDPGDRLIRHRACALRDTAYAIIKEELDE

Tests used:
[1] = target: T1, ATAD2 bromodomain (BRD), residues 981–1108; test: ITC of histone peptides with the wild-type ATAD2 bromodomain; format: binding; conditions: for N-Value (stoichiometry of binding, peptide-to-bromodomain ratio) / ATAD2 BRD KD: ITC, 5 °C; for N-Value (stoichiometry of binding, peptide-to-bromodomain ratio): ATAD2 BRD (residues 981–1108, wild type), one set of sites model; for Kd: SD; for ATAD2 BRD KD: 150 mM NaH2PO4 and 150 mM NaCl, 5 mM peptide titrated into 0.2 mM ATAD2 BRD (residues 981–1108, wild type), 1:1 binding model, mean ± SD of three runs, no binding repeated in duplicate
Description: (§1) Purified protein was concentrated to a volume of 3 mL and dialyzed into ITC buffer (150 mM NaH2PO4 and 150 mM NaCl) for 48 h. ITC experiments with histone peptides were carried out at 5 °C using a MicroCal iTC200 (Malvern Panalytical, Westborough, MA, USA). […] The stirring speed was set at 750 RPM. After excluding the first injection, the ITC binding isotherms were integrated using a Marquandt nonlinear least-squares analysis according to a 1:1 binding model assuming a single set of identical binding sites with the Origin 7.0 program (OrginLab Corporation, Northampton, MA, USA). The raw data were corrected for non-specific heats of dilution determined by the magnitude of the peaks appearing after the system reaches complete saturation. The obtained heats of dilution were analyzed according to a one set of sites binding model and used to calculate binding affinities, N values, and thermodynamic values. […] The mean Kd was calculated from the average of the three runs, and the standard deviation was calculated from the mean.

[2] = target: T2, ATAD2 BRD mutant N1064A; test: ITC of histone peptides with the ATAD2 bromodomain mutant N1064A; format: binding; conditions: ATAD2 (residues 981–1108) N1064A mutant bromodomain
Description: as §1

[3] = target: T3, ATAD2 BRD mutant I1074Y; test: ITC of histone peptides with the ATAD2 bromodomain mutant I1074Y; format: binding; conditions: ATAD2 (residues 981–1108) I1074Y mutant bromodomain
Description: as §1

[4] = target: T4, ATAD2 BRD mutant I1074A; test: ITC of histone peptides with the ATAD2 bromodomain mutant I1074A; format: binding; conditions: ATAD2 (residues 981–1108) I1074A mutant bromodomain
Description: as §1

[5] = target: histone H4K5ac (Homo sapiens) (UniProt P62805); test: ITC; conditions: cited from earlier work
[6] = target: histone H4K8ac (Homo sapiens) (UniProt P62805); test: ITC; conditions: cited from earlier work
[7] = target: T5, ATAD2 bromodomain (residues 966–1112, C1101A); test: ITC of histone H4 peptides with the longer ATAD2 bromodomain construct; format: binding; conditions: for N-Value (stoichiometry of binding): ITC, 5 °C, ATAD2 bromodomain residues 966–1112, C1101A; for Kd: SD, read-out: KD from ITC
Description: as §1

[8] = target: T6, histone H4K5acK8ac 1-10; test: ITC
[9] = target: T7, histone H4K12ac 4-17; test: ITC

Row | Molecule | N-Value (stoichiometry of binding, peptide-to-bromodomain ratio) [1] | Kd [1] [µM] | ATAD2 BRD KD [1] | further results
1 | CC(=O)NCCCC[C@H](NC(=O)CNC(=O)CN)C(=O)NCC(=O)N[C@@H](CC(C)C)C(=O)NCC(=O)N[C@@H](CCCCNC(C)=O)C(=O)NCC(=O)NCC(=O)N[C@@H](C)C(N)=O [H4K8acK12ac (res 6–15)] | 1.169 | 392 ± 19.5 |  | 
2 | CC(=O)NCCCC[C@H](NC(=O)CNC(=O)[C@H](CC(C)C)NC(=O)CNC(=O)[C@H](CCCCN)NC(=O)CNC(=O)CNC(=O)[C@H](CCCCN)NC(=O)CN)C(=O)NCC(=O)NCC(=O)N[C@@H](C)C(=O)N[C@@H](CCCCN)C(=O)N[C@@H](CCCNC(=N)N)C(N)=O [H4K12ac (res 4–17)] | 1.170 | 95.1 ± 13.1 |  | KD [2]: No binding; KD [3]: No binding; KD [4]: No binding
3 | ARTKQTARKSTG [H3 unmodified (res 1–12), unmodified histone H3 tail peptide, residues 1–12] |  |  | No Binding | 
4 | ARTKQTARKacSTG [H3K9ac (res 1–12), histone H3 tail peptide, residues 1–12, acetylated at K9] |  |  | No Binding | 
5 | ATAD2 bromodomain (from UniProt Q6PL18) |  |  |  | Kd [5]: 44.5 µM; Kd [6]: 1130 µM
6 | GKGGKGLGKGGAKR [H4 unmodified (res 4–17), unmodified histone H4 tail peptide, residues 4–17; free N-terminus, amidated C-terminus] |  |  | No Binding | 
7 | GKGGKacGLGKGGAKR [H4K8ac (res 4–17), histone H4 tail peptide, residues 4–17, acetylated at K8] |  |  | No Binding | ATAD2 BRD KD ([1]; listed as H5K8ac (4–17)): complete lack of binding
8 | GKacGGKGLGKGGAKR [H4K5ac (res 4–17), histone H4 tail peptide, residues 4–17, acetylated at K5] |  |  | No Binding | ATAD2 BRD KD ([1]; listed as H4K5ac (4–17)): complete lack of binding
9 | LGK(Ac)GGAK(Ac)RHRK-NH2 [H4K12acK16ac (res 10–20)] | 1.082 | 303 ± 18.7 |  | 
10 | LGKGGAKacRHRK [H4K16ac (res 10–20), histone H4 tail peptide, residues 10–20, acetylated at K16] |  |  | No Binding | 
11 | RKSTGGKAPRKacQ [H3K18ac (res 8–19), histone H3 tail peptide, residues 8–19, acetylated at K18] |  |  | No Binding | 
12 | RKSTGGKacAPRKQ [H3K14ac (res 8–19), histone H3 tail peptide, residues 8–19, acetylated at K14] |  |  | No Binding | ATAD2 BRD KD ([1]; listed as H3K14ac): did not observe any binding
13 | SGRGK(Ac)GGK(Ac)GL-NH2 [H4K5acK8ac (res 1–10)] | 0.938 | 33.2 ± 5.9 |  | N-Value (stoichiometry of binding) [7]: 0.974; Kd [7]: 15.9 ± 2.5 µM; KD [2]: No binding; KD [3]: No binding; KD [4]: No binding
14 | SGRGK(Ac)GGKGL-NH2 [H4K5ac (res 1–10)] | 1.070 | 44.5 ± 3.3 |  | N-Value (stoichiometry of binding) [7]: 1.021; Kd [7]: 10.1 ± 1.3 µM
15 | SGRGK(Ac)QGGKARA-NH2 [H2AK5ac (res 1–12)] | 0.997 | 38.9 ± 5.9 |  | 
16 | SGRGKGGK(Ac)GL-NH2 [H4K8ac (res 1–10)] | 1.144 | 1130 ± 122 |  | 
17 | B1 |  |  |  | Kd [8]: 33.2 µM; Kd [9]: 95.1 µM
